The record followed here is patent US8138340B2, “Bicyclononene derivatives” (Actelion Pharmaceuticals Ltd., priority 2004, dated 2012).

This test has as its target T1, recombinant human renin (Homo sapiens, UniProt P00797).
T1 sequence (P00797 67-406): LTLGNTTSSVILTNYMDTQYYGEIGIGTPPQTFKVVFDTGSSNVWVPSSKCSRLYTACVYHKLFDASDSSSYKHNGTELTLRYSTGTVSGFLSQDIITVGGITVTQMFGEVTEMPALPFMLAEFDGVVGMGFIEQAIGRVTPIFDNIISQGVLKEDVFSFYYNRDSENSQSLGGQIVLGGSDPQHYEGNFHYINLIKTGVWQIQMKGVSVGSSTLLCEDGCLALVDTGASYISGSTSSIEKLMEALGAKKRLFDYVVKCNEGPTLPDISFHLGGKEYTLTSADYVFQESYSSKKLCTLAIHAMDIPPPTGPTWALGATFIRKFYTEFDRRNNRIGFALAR
In words: Primary renin inhibition assay: IC50 in buffer, 384 well MTP (AngI quantified by EIA). Format: biochemical. The note with it: human tetradecapeptide substrate, assay buffer pH 7.4, 37° C. for 3 h. The protocol: 1. Enzyme Immuno Assay (EIA) to Estimate AngI Accumulation and Renin Inhibition
1.1 Preparation of AngI-BSA Conjugate
1.3 mg (1 μmol) of AngI [1-10 (Bachem, H-1680)] and 17 mg (0.26 μmol) of BSA (Fluka, 05475) were dissolved in 4 mL of 0.1M phosphate buffer, pH 7.4, after which 2 mL of a 1:100 dilution of glutaraldehyde in H2O (Sigma G-5882) was added dropwise. The mixture was incubated overnight at 4° C., then dialyzed against 2 liters of 0.9% NaCl, twice for 4 h at rt, followed by dialysis against 2 liters of PBS 1× overnight at rt. The solution was then filtered with a Syringe filter, 0.45 μm (Nalgene, Cat. No. 194-2545). The conjugate can be stored in polypropylene tubes in 0.05% sodium azide at 4° C. for at least 12 months.
1.2 Preparation of BSA-AngI Coated MTP
Microtiter plates (MPT384, MaxiSorp™, Nunc) were incubated overnight at 4° C. with 80 μl of AngI (1-10)/BSA conjugate, diluted 1:100'000 in PBS 1× in a teflon beaker (exact dilution dependent on batch of conjugate), emptied, filled with 90 μl of blocking solution [0.5% BSA (Sigma A-2153) in PBS 1×, 0.02% NaN3], and incubated for at least 2 h at rt, or overnight at 4° C. 96 well MTP (MaxiSorp™, Nunc) were coated with […] conjugate and blocked with 250 μl blocking solution as above, except that the blocking solution contained 3% BSA. The plates can be stored in blocking solution at 4° C. for 1 month.
1.3 AngI-EIA in 384 well MTP
The AngI (1-10)/BSA coated MTP were washed 3 times with wash buffer (PBS 1×, 0.01% Tween 20) and filled with 75 μl of primary antibody solution (anti-AngI antiserum, pre-diluted 1:10 in horse serum), diluted to a final concentration of 1:100'000 in assay buffer (PBS 1×, 1 mM EDTA, 0.1% BSA, pH 7.4). 5 μl of the renin reaction (or standards in assay buffer) (see below) were added to the primary antibody solution and the plates were incubated overnight at 4° C. After the incubation the plates were washed 3 times with wash buffer and incubated with secondary antibody [anti-rabbit IgG, linked to horseradish peroxidase (Amersham Bioscience, NA 934V), diluted 1:2'000 in wash buffer] for 2 h at rt. The plates were washed 3 times with wash buffer and then incubated for 1 h at rt with substrate solution [1.89 mM ABTS (2.2′-azino-di-(3-ethyl-benzthiazolinsulfonate)] (Roche Diagnostics, 102 946) and 2.36 mM H2O2 [30%, (Fluka, 95300] in substrate buffer (0.1M sodium acetate, 0.05M sodium dihydrogen phosphate, pH 4.2). The OD of the plate was read at 405 nm in a microplate reader (FLUOStar Optima from BMG). The production of AngI during the renin reaction was quantified by comparing the OD of the sample with the OD of a standard curve of AngI(1-10), measured in parallel.
2. Primary Renin Inhibition Assay: IC50 in Buffer, 384 well MTP
The renin assay was adapted from an assay described before (Fischli W. et al., Hypertension, 1991, 18:22-31) and consists of two steps: in the first step, recombinant human renin is incubated with its substrate (commercial human tetradecapeptide renin substrate) to create the product Angiotensin I (AngI). In the second step, the accumulated AngI is measured by an immunological assay (enzyme immuno assay, EIA). The detailed description of this assay is found below. The EIA is very sensitive and well suited for renin activity measurements in buffer or in plasma. Due to the low concentration of renin used in this assay (2 fmol per assay tube or 10 pM) it is possible to measure inhibitor affinities in this primary assay down to low pM concentration.
Recombinant human renin (3 pg/μl) in assay buffer (PBS 1×, 1 mM EDTA, 0.1% BSA, pH 7.4), human tetradecapeptide (1-14) substrate (Bachem, M-1120) [5 μM in 10 mM HCl], hydroxyquinoline sulfate (Fluka, 55100) [30 mM in H2O] and assay buffer were premixed at 4° C. at a ratio of 100:30:10:145. 47.5 μl per well of this premix was transferred into polypropylene plates (MTP384, Nunc). […]

What is called IC50 is the concentration that gives 50% inhibition. Regarding `O=C(C1=C(c2nc(CCCOc3cc(C(F)(F)F)ccc3Cl)cs2)C[C@@H]2CNC[C@H]1N2)N(Cc1cccc(Cl)c1Cl)C1CC1` (racemic) [Example 2, (rac.)-(1R*, 5S*)-7-{4-[3-(2-Chloro-5-trifluoromethylphenoxy)propyl]thiazol-2-yl}-3,9-diazabicyclo[3.3.1]non-6-ene-6-carboxylic acid cyclopropyl-(2,3-dichlorobenzyl)amide], the concentration for half-maximal inhibition (IC50) was found to be 94 nM.

As to `Cc1ccc(F)c(OCCOc2ncc(C3=C(C(=O)N(Cc4cccc(Cl)c4Cl)C4CC4)[C@H]4CNC[C@@H](C3)N4)s2)c1Cl` (racemic) [Example 7, (rac.)-(1R*, 5S*)-7-{2-[2-(2-Chloro-6-fluoro-3-methylphenoxy)ethoxy]thiazol-5-yl}-3,9-diazabicyclo[3.3.1]non-6-ene-6-carboxylic acid cyclopropyl-(2,3-dichlorobenzyl)-amide], the IC50 amounted to 2.9 nM.

`Cc1ccc(F)c(OCCCc2coc(C3=C(C(=O)N(Cc4cccc(Cl)c4Cl)C4CC4)[C@H]4CNC[C@@H](C3)N4)n2)c1Cl` (racemic) [Example 12, (rac.)-(1R*, 5S*)-7-{4-[3-(2-Chloro-6-fluoro-3-methylphenoxy)propyl]oxazol-2-yl}-3,9-diazabicyclo[3.3.1]non-6-ene-6-carboxylic acid cyclopropyl-(2,3-dichlorobenzyl)-amide]: the IC50 was found to be 46 nM.

For `COc1cccc(CN(C(=O)C2=C(c3cnc(CCCOc4c(Cl)cc(C)cc4Cl)s3)C[C@@H]3CNC[C@H]2N3)C2CC2)c1C` (racemic) [Example 21, (rac.)-(1R*, 5S*)-7-{2-[3-(2,6-Dichloro-4-methylphenoxy)propyl]thiazol-5-yl}-3,9-diazabicyclo[3.3.1]non-6-ene-6-carboxylic acid cyclopropyl-(3-methoxy-2-methylbenzyl)amide], the IC50 came to 4.4 nM.

For `COc1cccc(CN(C(=O)C2=C(c3cnc(OCCOc4c(Cl)cc(C)cc4Cl)s3)C[C@@H]3CNC[C@H]2N3)C2CC2)c1C` (racemic) [Example 35, (rac.)-(1R*, 5S*)-7-{2-[2-(2,6-Dichloro-4-methylphenoxy)ethoxy]thiazol-5-yl}-3,9-diazabicyclo[3.3.1]non-6-ene-6-carboxylic acid cyclopropyl-(3-methoxy-2-methylbenzyl)amide], the concentration for half-maximal inhibition (IC50) worked out at 1.3 nM.

Consider `Cc1cc(Cl)c(OCCOc2ncc(C3=C(C(=O)N(Cc4cccc(F)c4F)C4CC4)[C@H]4CNC[C@@H](C3)N4)s2)c(Cl)c1` (racemic) [Example 45, (rac.)-(1R*, 5S*)-7-{2-[2-(2,6-Dichloro-4-methylphenoxy)ethoxy]thiazol-5-yl}-3,9-diazabicyclo[3.3.1]non-6-ene-6-carboxylic acid cyclopropyl-(2,3-difluorobenzyl)amide], for which the concentration for half-maximal inhibition (IC50) came to 15 nM.

Turning to `Cc1cc(Cl)c(OCCOc2ncc(C3=C(C(=O)N(Cc4cccc(Cl)c4C)C4CC4)[C@H]4CNC[C@@H](C3)N4)s2)c(Cl)c1` (racemic) [Example 52, (rac.)-(1R*, 5S*)-7-{2-[2-(2,6-Dichloro-4-methylphenoxy)ethoxy]thiazol-5-yl}-3,9-diazabicyclo[3.3.1]non-6-ene-6-carboxylic acid (3-chloro-2-methylbenzyl)cyclopropyl-amide], the 50% inhibitory concentration (IC50) is 1.1 nM.

Take “(rac.)-(1R*, 5S*)-7-{4-[3-(3-Chloro-2,6-difluorophenoxy)propyl]thiazol-2-yl}-3,9-diazabicyclo[3.3.1]non-6-ene-6-carboxylic acid cyclopropyl-(2,3-dichloro-benzyl)amide [Example 3]”: the half-maximal inhibitory concentration (IC50) was determined as 16 nM.

For “(rac.)-(1R*, 5S*)-7-{5-[2-(4-Chloro-3,5-dimethylphenoxy)ethyl]-4-methylthiazol-2-yl}-3,9-diazabicyclo[3.3.1]non-6-ene-6-carboxylic acid cyclopropyl-(3-methoxy-2-methylbenzyl)amide [Example 1]”, the IC50 is 57 nM.
